Measurements reported in patent US6090605A, “Purified porcine kidney L-fucose kinase” (The Board of Trustees of the University of Arkansas, priority 1998, dated 2000).
Entries after “also recorded” stand apart in the source; their conditions may differ.

Experiments:
pig kidney fucokinase [1] = target: T1, pig kidney fucokinase (Sus scrofa, UniProt I3LTC2); assay: Effect of metal ions on fucokinase activity; type: biochemical; settings: for effect on activity when added to incubations containing Mg++ (in words): metal ion at 1 mM
T1 construct: L-Fucokinase was purified to apparent homogeneity from the cytosolic fraction of pig kidney; from tissue; host or cells: pig kidney, cytosolic fraction
T1 sequence (I3LTC2 1-1083): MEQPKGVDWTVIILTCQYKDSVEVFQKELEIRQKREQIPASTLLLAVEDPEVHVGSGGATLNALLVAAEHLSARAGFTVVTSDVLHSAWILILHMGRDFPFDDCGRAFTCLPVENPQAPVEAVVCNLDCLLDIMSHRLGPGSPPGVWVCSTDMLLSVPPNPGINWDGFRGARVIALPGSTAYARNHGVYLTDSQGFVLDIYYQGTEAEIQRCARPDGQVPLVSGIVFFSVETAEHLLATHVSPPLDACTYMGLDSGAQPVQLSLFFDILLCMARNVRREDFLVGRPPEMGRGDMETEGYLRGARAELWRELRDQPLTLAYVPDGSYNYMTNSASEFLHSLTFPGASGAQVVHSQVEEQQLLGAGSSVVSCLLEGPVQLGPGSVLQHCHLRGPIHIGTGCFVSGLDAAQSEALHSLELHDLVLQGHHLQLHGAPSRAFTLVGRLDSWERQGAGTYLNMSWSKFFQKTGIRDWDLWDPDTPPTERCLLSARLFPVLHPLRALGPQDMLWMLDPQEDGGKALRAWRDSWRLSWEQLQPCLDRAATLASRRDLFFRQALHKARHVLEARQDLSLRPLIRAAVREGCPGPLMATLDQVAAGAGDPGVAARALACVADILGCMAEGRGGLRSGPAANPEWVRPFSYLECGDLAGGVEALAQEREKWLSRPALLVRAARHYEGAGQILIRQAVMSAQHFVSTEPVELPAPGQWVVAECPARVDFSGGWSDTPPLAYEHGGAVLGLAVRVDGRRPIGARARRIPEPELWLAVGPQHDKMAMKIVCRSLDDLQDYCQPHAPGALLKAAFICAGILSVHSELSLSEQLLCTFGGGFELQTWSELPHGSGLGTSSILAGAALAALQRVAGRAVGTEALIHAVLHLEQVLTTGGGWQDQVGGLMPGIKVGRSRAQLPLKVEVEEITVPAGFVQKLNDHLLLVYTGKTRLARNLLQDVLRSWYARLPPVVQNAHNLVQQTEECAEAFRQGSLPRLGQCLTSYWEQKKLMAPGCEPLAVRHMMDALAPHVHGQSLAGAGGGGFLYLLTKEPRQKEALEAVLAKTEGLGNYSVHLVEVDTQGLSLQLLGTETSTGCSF
Method: Increasing concentrations of the metal ions shown were added to incubations of the purified enzyme with ^3 H-fucose and ATP, and the formation of fucose-1-P was measured as described below. Metal ions tested were as follows: Mg^++, filled circles; Fe^++, filled diamonds; Co^++, filled triangles; Mn^++, filled squares.
(§1) Fucokinase activity was assayed by measuring the production of L-fucose-1-Pfrom [^3 H]L-fucose and ATP. The incubation mixtures contained the following components (final concentrations) in a total volume of 150 μl: L-fucose, 0.1 mM; ATP, 5 mM; MgSO4, 5 mM; Tris-HCl buffer, pH 8.0, 65 mM; and various amounts of enzyme at the different stages of purification. Incubations were at 37° C. for 10 minutes, and reactions were terminated by heating the reaction mixtures in a boiling water bath for 1 minute. The incubation mixtures were then applied to a column of DE-52 contained in a Pasteur pipette, and the column was washed with at least 5 column volumes of 10 mM (NH4)HCO3 to remove the unbound material. The [^3 H]fucose-1-P was then eluted with 500 mM (NH4)HCO3. Aliquots of the eluates were assayed for their radioactive content by subjecting a portion to scintillation counting.
Co^++ and Mn^++ were also stimulatory with maximum activity occurring at about 3 to 5 mM, but the maximum activity was only about 25% to 33% of that observed with Mg^++.

[2] = target: T2, pig kidney fucokinase (110 kDa band) (Sus scrofa, UniProt I3LTC2); assay: Photoaffinity labeling of the fucokinase with 8-azido-ATP[32P]; type: binding; settings: incubation with probe, exposure to UV light
T2 construct: L-Fucokinase was purified to apparent homogeneity from the cytosolic fraction of pig kidney; from tissue; host or cells: pig kidney, cytosolic fraction
T2 sequence (I3LTC2 1-1083): T1 sequence (I3LTC2 1-1083)
Method: The purified enzyme was incubated for 20 seconds with azido-ATP[^32 P], and the mixture was exposed to UV for 90 seconds. The reaction was stopped by adding loading buffer and the mixture subjected to SDS-PAGE. Radioactive bands were detected by exposure to film. Lanes are as follows: Lane 1, Probe+enzyme, but no UV; Lane 2, Probe+enzyme+UV; Lanes 3 through 6. Probe+enzyme+0.3, 0.6, 0.9, and 1.2 mM ATP+exposure to UV light; lanes 7 and 8, 0.6 and 1.2 mM GTP+probe+exposure to UV light: lanes 9 and 10, 0.6 and 1.2 mM ITP+probe+exposure to UV light. In lanes 11 and 12, the enzyme was incubated with N3 -GTP[^32 P ] and then exposed to UV light (lane 12) or not exposed to UV light (lane 11). Lane 13 is a control of enzyme+N3 -ATP[^32 P]+exposure to UV light.
Enzyme, at various stages of purity, was mixed with 8-azido-ATP[^32 P] in buffer, and allowed to incubate for 20 sec. in an ice bath. 8-Azido-ATP[^32 P] was prepared as previously described (16). After incubation, the reaction mixture was exposed to short wave UV light for about 90 sec. to activate the azido group, and the protein was subjected to SDS gel electrophoresis to separate the proteins. The gels were dried and exposed to film to locate the radioactive bands and were also stained with Coomassie blue to locate the various proteins. The specificity of the labeling was determined by examining the effect of various concentrations of unlabeled ATP or other nucleotides on the labeling of the protein by N3 -ATP[^32 P]. Various controls were also run, such as one in which exposure to UV was omitted.
Lanes 11-13 of FIG. 3 show the results of another experiment designed to determine whether 8-N3 -GTP[^32 P] could label the fucokinase. […] These experiments indicate that the fucokinase is quite specific for ATP.

pig kidney fucokinase [3] = target: T1, pig kidney fucokinase; assay: Specificity of fucokinase for phosphate donor (nucleotides); type: biochemical; settings: for activity as phosphate donor (in words): nucleotide added at 1 mM; for Specific Activity: nucleotide added at 1 mM as phosphate donor
Method: as §1
The specificity of the nucleoside triphosphate was also examined by testing the ability of a variety of nucleotides to serve as phosphate donors in the phosphorylation of [^3 H]L-fucose. […] In addition, no activity is observed with any nucleoside diphosphates or monophosphates.

pig kidney fucokinase [4] = target: T1, pig kidney fucokinase; assay: Sugar specificity of purified fucokinase (radiolabeled sugars as phosphate acceptors); type: biochemical; settings: for Specific Activity: radiolabeled sugar 100 μM as phosphate acceptor
Method: as §1
The specificity of the kinase for various sugar substrates was examined in two different ways. In the first set of experiments, various radiolabeled sugars were tested as phosphate acceptors for the purified enzyme using the ion-exchange chromatography method for assay of activity. […] D-Arabinose, which has the same configuration at carbons 1 through 4 as L-fucose, was also a reasonable substrate for phosphorylation, and was about 10% as effective as L-fucose. On the other hand, all of the other sugars were ineffective as phosphate acceptors.

pig kidney fucokinase [5] = target: T1, pig kidney fucokinase; assay: Inhibition of [3H]L-fucose phosphorylation by unlabeled monosaccharides; type: biochemical; settings: for Relative Activity (%): unlabeled monosaccharide 500 μM, radiolabeled L-fucose substrate 100 μM; for inhibition of phosphorylation of [3H]L-fucose (in words): unlabeled sugar 500 μM
Method: as §1
Although it was possible to get a reasonable assessment of the sugar specificity of the kinase from the above experiment, it was not possible to test sugars such as D-fucose, since these sugars are not available in radioactive form. Thus, these unlabeled sugars were tested for their ability to inhibit the phosphorylation of [^3 H]L-fucose. The rationale for this experiment is that a sugar that inhibits the phosphorylation of L-fucose would probably compete with L-fucose for the phosphorylation (i.e., active) site.

[6] = system: pig liver L-fucokinase preparation; settings: cited from earlier work

Compound: [Cu+2] [Cu^++]
- stimulation of enzyme activity by metal ion (in words) (pig kidney fucokinase [1]): inactive
- effect on activity when added to incubations containing Mg++ (in words) (pig kidney fucokinase [1]): completely inhibited activity

Compound: 8-N3 -GTP[^32 P]
- labeling of the 110 kDa protein by photoprobe (in words) [2]: did not give rise to labeled protein

Compound: O=c1ccn([C@@H]2O[C@H](COP(=O)(O)O)[C@@H](O)[C@H]2O)c(=O)[nH]1 [UMP]
- activity as phosphate donor (in words) (pig kidney fucokinase [3]): Inactive

Compound: O=C[C@@H](O)[C@H](O)[C@H](O)CO [D-arabinose]
- activity as phosphate acceptor (in words) (pig kidney fucokinase [4]; purified enzyme): active as phosphate acceptors
- rate of phosphorylation relative to L-fucose (pig kidney fucokinase [4]; purified enzyme, sugar as phosphate acceptor): about 10%
- Specific Activity (pig kidney fucokinase [4]): 1.1 nmole/mg protein
- Relative Activity (%) (pig kidney fucokinase [5]): 80%
- inhibition of phosphorylation of [3H]L-fucose (in words) (pig kidney fucokinase [5]): inhibited although considerably less so than the L-fucose

Compound: O=c1ccn([C@@H]2O[C@H](COP(=O)(O)OP(=O)(O)O)[C@@H](O)[C@H]2O)c(=O)[nH]1 [UDP]
- activity as phosphate donor (in words) (pig kidney fucokinase [3]): Inactive

Compound: C[C@H](O)[C@H](O)[C@@H](O)[C@@H](O)C=O [L-rhamnose]
- inhibition of phosphorylation of [3H]L-fucose (in words) (pig kidney fucokinase [5]): ineffective as inhibitors
- phosphorylation of sugar by the about 70-fold purified preparation (in words) [6]: considerable activity for phosphorylating

Compound: O=C[C@H](O)[C@H](O)[C@H](O)CO [D-ribose]
- Specific Activity (pig kidney fucokinase [4]): 0 nmole/mg protein
- Relative Activity (%) (pig kidney fucokinase [5]): 96%
- phosphorylation of sugar by the about 70-fold purified preparation (in words) [6]: considerable activity for phosphorylating

Compound: [Ca+2] [Ca^++]
- stimulation of enzyme activity by metal ion (in words) (pig kidney fucokinase [1]): inactive

Compound: Nc1ncnc2c1ncn2[C@@H]1O[C@H](COP(=O)(O)O)[C@@H](O)[C@H]1O [AMP]
- activity as phosphate donor (in words) (pig kidney fucokinase [3]): Inactive

Compound: Nc1ccn([C@@H]2O[C@H](COP(=O)(O)OP(=O)(O)OP(=O)(O)O)[C@@H](O)[C@H]2O)c(=O)n1 [CTP]
- Specific Activity (pig kidney fucokinase [3]): 0.05 nmoles/mg protein/10 min
- use as phosphate donor (in words) [6]: could also use

Compound: C[C@@H](O)[C@H](O)[C@H](O)[C@@H](O)C=O [D-fucose]
- Relative Activity (%) (pig kidney fucokinase [5]): 102%
- inhibition of phosphorylation of [3H]L-fucose (in words) (pig kidney fucokinase [5]): ineffective as inhibitors

Compound: O=C[C@H](O)[C@@H](O)[C@H](O)CO [D-xylose]
- Specific Activity (pig kidney fucokinase [4]): 0 nmole/mg protein
- Relative Activity (%) (pig kidney fucokinase [5]): 103%

Compound: Nc1ncnc2c1ncn2[C@@H]1O[C@H](COP(=O)(O)OP(=O)(O)O)[C@@H](O)[C@H]1O [ADP]
- activity as phosphate donor (in words) (pig kidney fucokinase [3]): Inactive

Compound: [Mg+2] [Mg^++]
- stimulation of enzyme activity by metal ion (in words) (pig kidney fucokinase [1]): gave the best stimulation

Compound: Nc1ccn([C@@H]2O[C@H](COP(=O)(O)O)[C@@H](O)[C@H]2O)c(=O)n1 [CMP]
- activity as phosphate donor (in words) (pig kidney fucokinase [3]): Inactive

Compound: O=c1ccn([C@@H]2O[C@H](COP(=O)(O)OP(=O)(O)OP(=O)(O)O)[C@@H](O)[C@H]2O)c(=O)[nH]1 [UTP]
- Specific Activity (pig kidney fucokinase [3]): 0.04 nmoles/mg protein/10 min
- use as phosphate donor (in words) [6]: could also use

Compound: C[C@H](O)[C@@H](O)[C@@H](O)[C@H](O)C=O [L-fucose]
- activity as phosphate acceptor (in words) (pig kidney fucokinase [4]; purified enzyme): by far the best substrate; also recorded: active as phosphate acceptors
- Specific Activity (pig kidney fucokinase [4]): 11.8 nmole/mg protein
- Relative Activity (%) (pig kidney fucokinase [5]): 23%
- inhibition of phosphorylation of [3H]L-fucose (in words) (pig kidney fucokinase [5]): reasonable inhibitor

Compound: [Zn+2] [Zn^++]
- stimulation of enzyme activity by metal ion (in words) (pig kidney fucokinase [1]): inactive
- effect on activity when added to incubations containing Mg++ (in words) (pig kidney fucokinase [1]): completely inhibited activity

Compound: C[C@@H](O)[C@@H](O)[C@H](O)[C@H](O)C=O [D-rhamnose]
- Relative Activity (%) (pig kidney fucokinase [5]): 102%

Compound: [Fe+2] [Fe^++]
- metal ion concentration at optimum (maximum) activity (pig kidney fucokinase [1]): about 10 mM
- stimulation of enzyme activity by metal ion (in words) (pig kidney fucokinase [1]): nearly the same degree as Mg^++

Compound: Nc1nc2c(ncn2[C@@H]2O[C@H](COP(=O)(O)OP(=O)(O)O)[C@@H](O)[C@H]2O)c(=O)[nH]1 [GDP]
- activity as phosphate donor (in words) (pig kidney fucokinase [3]): Inactive

Compound: O=CC[C@@H](O)[C@H](O)[C@H](O)CO [2-deoxy-D-glucose]
- Relative Activity (%) (pig kidney fucokinase [5]): 92%
- inhibition of phosphorylation of [3H]L-fucose (in words) (pig kidney fucokinase [5]): ineffective as inhibitors

Compound: [Ni+2] [Ni^++]
- stimulation of enzyme activity by metal ion (in words) (pig kidney fucokinase [1]): inactive

Compound: Nc1nc2c(ncn2[C@@H]2O[C@H](COP(=O)(O)O)[C@@H](O)[C@H]2O)c(=O)[nH]1 [GMP]
- activity as phosphate donor (in words) (pig kidney fucokinase [3]): Inactive

Compound: [Mo+2] [Mo^++]
- stimulation of enzyme activity by metal ion (in words) (pig kidney fucokinase [1]): inactive

Compound: Nc1ccn([C@@H]2O[C@H](COP(=O)(O)OP(=O)(O)O)[C@@H](O)[C@H]2O)c(=O)n1 [CDP]
- activity as phosphate donor (in words) (pig kidney fucokinase [3]): Inactive

Compound: [Hg+2] [Hg^++]
- stimulation of enzyme activity by metal ion (in words) (pig kidney fucokinase [1]): inactive
- effect on activity when added to incubations containing Mg++ (in words) (pig kidney fucokinase [1]): completely inhibited activity

Compound: [Fe+3] [Fe^+++]
- stimulation of enzyme activity by metal ion (in words) (pig kidney fucokinase [1]): inactive
